Measurements published in ChEMBL document CHEMBL1144111, “Strong antinociceptive effect of incarvillateine, a novel monoterpene alkaloid from Incarvillea sinensis” (1999).
Calls of active or inactive are those of the source. No cut-off for these calls is given here.

Key:
[1] = system: Mus musculus; assay: Antinociceptive activity against formalin-induced pain in ip dosed ddY mouse assessed as reduction of paw licking response during neurogenic phase pretreated for 10 mins before formalin challenge relative to morphine; format: functional
[2] = system: Mus musculus; assay: Antinociceptive activity against formalin-induced pain in ip dosed ddY mouse assessed as reduction of paw licking response during inflammatory phase pretreated for 10 mins before formalin challenge relative to morphine; format: functional
[3] = system: Mus musculus; assay: Antinociceptive activity against formalin-induced pain in ip dosed ddY mouse assessed as reduction of paw licking response during inflammatory phase pretreated for 10 mins before formalin challenge; format: functional
[4] = system: Mus musculus; assay: Antinociceptive activity against formalin-induced pain in ip dosed ddY mouse assessed as reduction of paw licking response during neurogenic phase pretreated for 10 mins before formalin challenge; format: functional
[5] = system: Mus musculus; assay: Antinociceptive activity against formalin-induced pain in ddY mouse assessed as reduction of paw licking response during neurogenic phase at 20 mg/kg, ip pretreated for 10 mins before formalin challenge in presence of Naloxone; format: functional, organism-based; set-up: dose 20 mg/kg

With `COc1cc([C@H]2[C@H](C(=O)O[C@@H]3C[C@@H]4[C@@H](CN(C)C[C@@H]4C)[C@@H]3C)[C@H](c3ccc(O)c(OC)c3)[C@H]2C(=O)O[C@@H]2C[C@@H]3[C@@H](CN(C)C[C@@H]3C)[C@@H]2C)ccc1O` [INCARVILLATEINE] the Activity [1] was 1.06, the Activity [2] was 1.33 and the Activity [3] was “Dose-dependent effect”. The ED50 [3] was 7.8 µmol/kg, the Activity [4] was “Dose-dependent effect” and the ED50 [4] was 17.4 µmol/kg.
`CN1CC[C@]23c4c5ccc(O)c4O[C@H]2[C@@H](O)C=C[C@H]3[C@H]1C5` [MORPHINE] was tested, and the Activity [5] was “inactive”, the ED50 [3] was 10.4 µmol/kg and the ED50 [4] was 18.4 µmol/kg.
